From patent US20250213478A1, “CATIONIC LIPID HAVING DISULFIDE BOND, LIPID MEMBRANE STRUCTURE INCLUDING SAME, NUCLEIC ACID INTRODUCTION AGENT AND PHARMACEUTICAL COMPOSITION CONTAINING ANY ONE OF SAME, METHOD FOR INTRODUCING NUCLEIC ACID INTO CELL OR TARGET CELL, AND METHOD FOR PRODUCING CELLULAR PHARMACEUTICAL” (NOF Corporation, priority 2022, published 2025)

Legend:
[1] = Measurement of Liposomal pKa of LNP (TNS fluorescence); format: physicochemical; details: LNP without nucleic acid, cationic lipid:DOPC:Chol=52.5:7.5:40 + about 1.5 mol DMG-PEG2k; pH at which relative TNS fluorescence intensity was 50%
Experimental: Lipid nanoparticles (LNP) without containing nucleic acid were used for the evaluation of Liposomal pKa.
(§1) A 10 mM ethanol solution of cationic lipid, a 5 mM ethanol solution of DOPC, and a 10 mM ethanol solution of Chol were mixed at desired ratio (cationic lipid:DOPC:Chol=52.5:7.5:40 (molar ratio)) in an Eppendorf tube to achieve the total lipid amount of 720 nmol. To the obtained mixture was further added DMG-PEG2k (2 mM ethanol solution) in an amount of about 1.5 mol with respect to the total amount 100 mol of cationic lipid, DOPC, and Chol, and then ethanol was added to prepare an ethanol solution of the lipid (total amount: 360 μL).
(§2) An acidic malic acid buffer (20 mM, pH 3.0) (1080 μL) containing NaCl at a final concentration of 30 mM and an ethanol solution (360 μL) of lipid were each weighed in a syringe. Using an ultra high-speed nanomedicament producing apparatus NanoAssmblr (manufactured by Precision NanoSystems), LNP was prepared under the conditions of addition rate of acidic buffer solution: 3 mL/min, addition rate of ethanol solution of lipid: 1 mL/min, and syringe holder temperature: 25° C., and collected in a 15 mL tube. MES buffer (pH 6.5) (3000 μL) was added to the 15 mL tube, the obtained mixture was transferred to Amicon Ultra 4, and ultrafiltration was performed under centrifugation conditions (25° C., 1000 g, 6 min) to concentrate the mixture to about 100 μL. The obtained concentrate was diluted with PBS to 4 mL, and the mixture was concentrated again under centrifugation conditions (25° C., 1000 g, 6 min), and this operation was performed twice. The obtained concentrate was diluted with PBS to a lipid concentration of 0.5 mM to give a dispersion containing LNP.
20 mM Citrate buffer, sodium phosphate buffer, and tris HCl buffer, each containing NaCl at a final concentration of 150 mM and adjusted to various pHs within the range of pH 3.0 to 10.0, were prepared. TNS (manufactured by Sigma) was diluted with ultrapure water to 0.6 mM. TNS solution (2 μL), dispersions (12 μL) containing LNP prepared in [Experimental Example 1], 1., and buffers adjusted to various pHs (186 μL) were added to a black 96 well plate. The plate was protected from light and shaken at 400 rpm for 10 min. The fluorescence intensity (excitation: 321 nm/emission: 447 nm) was measured using a plate reader (manufactured by TECAN). The relative fluorescence intensity was calculated as a percentage, with the maximum value of the fluorescence intensity in each LNP being 100% and the minimum value being 0%. Furthermore, the pH at which the relative fluorescence intensity was 50% was taken as Liposomal pKa. In Comparative Example, the cationic lipid described in the aforementioned Table 3 were used.

[2] = system: HeLa cells; assay: Evaluation of in vitro gene expression in HeLa cell (luciferase mRNA-encapsulating LNP); format: cell-based, human; details: for cumulative luciferase luminescence intensity over 24 hr: luciferase mRNA 0.4 μg per dish, LNP cationic lipid:DOPC:Chol:DMG-PEG2k=55:5:40:1; for gene expression activity compared to Comparative Example: result in words
Experimental: (§3) LNP encapsulating mRNA that expresses luciferase (cationic lipid:DOPC:Chol:DMG-PEG2k=55:5:40:1 (molar ratio)) was prepared by the method described in [Experimental Example 2], 1.
HeLa cells, which are human cervical cancer cells, were seeded in a 3.5 cm dish at 5.0×10^4 cells/2 mL/Dish 24 hours before transfection. After 24 hours, the medium was exchanged with a culture medium (D-MEM) containing 0.1 mM D-luciferin. Prepared mRNA-encapsulating LNP was diluted with PBS such that the concentration of mRNA was about 8 μg/mL. The diluted mRNA-encapsulating LNP solution (about 50 μL, mRNA: 0.4 μg) was added to the 3.5 cm dish and set in an incubator luminometer KronosDio. The luminescence intensity of luciferase was measured for 2 min every one hour. The cumulative luciferase luminescence intensity for 24 hr was calculated from the obtained time change of expression. For example, “1.0E+06” means “1.0×10^6”. In Comparative Example, the cationic lipid described in the aforementioned Table 3 were used.

[3] = system: BALB/c mouse; assay: Evaluation of in vivo gene expression (luciferase mRNA-encapsulating LNP, IVIS of isolated organs); details: for relative value based on Comparative Example (amount of luminescence in spleen): relative to O-Ph-P4C2 LNP = 1.00; for amount of luminescence in each organ: heart / amount of luminescence in each organ: kidney / amount of luminescence in each organ: liver / amount of luminescence in each organ: lung / amount of luminescence in each organ: spleen: tail vein, mRNA 0.05 mg/kg, 4.5 hr + 15 min after administration; for amount of luminescence in each organ: spleen: spleen (Table 7)
Experimental: as §3
The prepared each mRNA-encapsulating LNP dispersion was administered from the tail vein of BALB/c mouse (male, 5-week-old). The dose of mRNA was set to 0.05 mg per 1 kg body weight of the mouse, and the dose of the mRNA-encapsulating LNP dispersion was set to 10 μL per 1 g body weight of the mouse. After 4.5 hr from the administration of the mRNA-encapsulating LNP dispersion, a PBS solution of D-luciferin potassium was administered into the abdominal cavity of the mouse. The dose of D-luciferin potassium was set to 3 mg per mouse, and the dose of the PBS solution of D-luciferin potassium was set to 200 μL per mouse. After 15 min from the administration of the PBS solution of D-luciferin potassium, the mouse was euthanized, and the liver, spleen, kidney, heart, and lung were isolated. The luminescence in each organ was quantified using an in vivo imaging system (IVIS) with an exposure of 10 sec. The amount of luminescence in each organ was quantified by image analysis using Live Imaging software attached to IVIS. The amount of luminescence (photons/sec) was calculated from the acquired image and used as an index of gene expression activity. “E+0a” (a: integer) indicated in Table 7 and Table 8 means “10^a”. For example, “1.0E+02” means “1.0×10^2”. In Comparative Example, the cationic lipid described in the aforementioned Table 3 were used.

[4] = Particle size, PdI and zeta potential of mRNA-encapsulating LNPs (dynamic light scattering); format: physicochemical; details: mRNA-encapsulating LNP, cationic lipid:DOPC:Chol=55:5:40 + about 1 mol DMG-PEG2k; for PdI / particle size: dynamic light scattering; for zeta potential: physiological pH
Experimental: as §1, with “lipid:DOPC:Chol=55:5:40” for “lipid:DOPC:Chol=52.5:7.5:40”, “1” for “1.5”
An acidic buffer solution (total amount: 1080 μL) of nucleic acid was prepared by weighing 7.2 μg of mRNA solution (0.6 mg/mL) in a 5 mL tube and adding acidic malate buffer (20 mM, pH 3.0) containing NaCl at a final concentration of 30 mM.
as §2, with “buffer solution of nucleic” for “malic”, “acid” for “acid buffer (20 mM, pH 3.0) (1080 μL) containing NaCl at a final concentration of 30 mM”, “solution” for “solution (360 μL)”, “solution of nucleic acid:” for “solution:”, “2” for “0.5”
The particle size, PdI (Polydispersity Index), and zeta potential of the mRNA-encapsulating LNP prepared by the method of the above-mentioned 1 were measured by a dynamic light scattering method. In Comparative Example, the cationic lipid described in the aforementioned Table 3 were used.

Structure (SMILES)	pKa [1]	cumulative luciferase luminescence intensity over 24 hr [2] [RLU]	gene expression activity compared to Comparative Example [2]	relative value based on Comparative Example (amount of luminescence in spleen) [3]	amount of luminescence in each organ: heart [3] [photons/sec]	amount of luminescence in each organ: kidney [3] [photons/sec]	amount of luminescence in each organ: liver [3] [photons/sec]	amount of luminescence in each organ: lung [3] [photons/sec]	amount of luminescence in each organ: spleen [3] [photons/sec]	PdI [4]	particle size [4] [nm]	zeta potential [4] [mV]
CCCCCCCCCCCCCCCCC(CCCCCCCCCCCCCCCC)C(=O)Oc1ccc(CC(=O)OCCSSCCOC(=O)NCCCCN(C)C)cc1 [Example 25]	8.6	1.25E+07	superior gene expression activity	0.03	4.74E+05	3.63E+05	1.67E+05	2.74E+05	3.07E+05	0.126	78	14.7
CCCCCCCCCCCCCCCCC(CCCCCCCCCCCCCCCC)C(=O)Oc1ccc(CC(=O)OCCSSCCOC(=O)NCCCN(C)C)cc1 [Example 23]	8.3	2.05E+07	superior gene expression activity	0.04	–	1.53E+05	2.36E+05	5.02E+05	4.45E+05	0.160	94	13.8
CCCCCCCCCCCCCCCCC(CCCCCCCCCCCCCCCC)C(=O)Oc1ccc(CC(=O)OCCSSCCOC(=O)C(C)CN(C)C)cc1 (stereo not shown) [Example 13]	6.3	1.44E+05	–	0.19	1.00E+06	8.00E+05	5.00E+07	8.67E+05	2.00E+06	0.086	94	−10.2
CCCCCCCCCCCCCCCCC(CCCCCCCCCCCCCCCC)C(=O)Oc1ccc(CC(=O)OCCSSCCOC(=O)NCCN(C(C)C)C(C)C)cc1 [Example 28]	6.7	4.57E+07	superior gene expression activity	0.16	6.88E+05	6.48E+05	9.90E+07	9.12E+05	1.68E+06	0.070	66	−1.4
CCCCC/C=C\C/C=C\CCCCCCCC(=O)OCC(C)(COC(=O)CCCCCCC/C=C\C/C=C\CCCCC)C(=O)Oc1ccc(CC(=O)OCCSSCCOC(=O)NCCN(CC)CC)cc1 [Example 35]	6.8	6.34E+07	superior gene expression activity	0.37	6.31E+05	3.94E+05	1.35E+07	4.65E+05	4.03E+06	0.068	70	−4.0
CCCCCCCCCCCCCCCCC(CCCCCCCCCCCCCCCC)C(=O)Oc1ccc(CC(=O)OCCSSCCOC(=O)N(C)CCCN(C)C)cc1 [Example 24]	8.2	6.22E+07	superior gene expression activity	0.05	4.78E+05	4.84E+05	5.08E+05	5.58E+05	5.09E+05	0.109	96	12.2
